Measured values: patent US5380715A, “Ap4 A as a hypotensive agent” (Fujirebio Inc., priority 1992, dated 1995)
Entries after “also recorded” stand apart in the source; their conditions may differ.

Columns and labels:
rats [1] = assay: Gradual hypotension during anesthesia in rats; assay type: in vivo, male SD rats; conditions: rat, enflurane
Description: Male SD rats (Charles River Japan Inc.) were anesthetized with intravenous thiopental 50 mg/kg as a bolus, followed by 1% enflurane in air.
A femoral artery was catheterized to monitor the blood pressure and heart rate, while a femoral vein was catheterized for the administration of each of the test drugs.
(§1) The control values were obtained before the administration of each test drug. Each test drug was then administered using a syringe in a dose-dependent manner for 15 minutes. The percentage (%) of the decrease of blood pressure was determined when stabilized. Changes in heart rate (H.R.) at the administration of each test drug were measured. Furthermore,the recovery of mean blood pressure after intravenous infusion of each test drug was also determined from the decrease in heart rate and the blood pressure at a maximum dose of each test drug.

[2] = words; cited from earlier work
rats [3] = assay: Recovery of blood pressure after gradual hypotension in rats; assay type: in vivo, male SD rats; conditions: rat
Description: FIG. 1 is a graph showing the recovery of the blood pressure of rats anesthetized with enflurane with time, when each of Ap4A ( ), PG E1 ( ) and nitroglycerin ( ) was used as a test drug to attain gradual hypotension, with the blood pressure before the administration of each test drug being set 100% for reference.
The recovery of blood pressure after gradual hypotension by use of each of Ap4A, PG E1 and nitroglycerin was also tested.
as §1
In a test similar to the above, each of Ap4A, PG E1, and nitroglycerin was administered to rats, so that about 65% fall in blood pressure, about 55% fall in blood pressure, and about 35% fall in blood pressure were stepwise attained. With respect to each agent, the recovery of blood pressure was tested.

dogs = assay: Gradual hypotension during anesthesia in dogs (hemodynamics, blood gas); assay type: in vivo, mongrel dogs; conditions: dog
Description: Dogs were anesthetized with enflurane. […] The mean blood pressure (B.P.), heart rate (H.R.), cardiac output (C.O.), arterial oxygen tension (PaO2), mixed venos oxygen tension (PvO2), arterial carbonate tension (PaCO2), mixed venous carbonate tension (PvCO2), arterial pH (pH-a), mixed venous pH (pH-v), and base excess thereof were measured.
Mongrel dogs weighing 9 to 17 kg were anesthetized with intravenous thiopental 20 mg/kg by bolus injection, followed by 1% enflurane in 40% O2 /N2 after endotracheal intubation. […] Bilateral femoral arteries were catheterized, one for the determination of blood pressure and the other for blood sampling.
Access to the bilateral femoral veins was obtained for the administration of Ap4A, PG E1 or nitroglycerin and for the insertion of a ballon-tipped thermodilution catheter. The electrocardiogram was continuously monitored. The control values were obtained before the administration of each of the above-mentioned three agents. Each agent was administered using a syringe pump at titrated doses to produce gradual 20%, 40%, 50%, 60%, and 80% decreases in the mean arterial pressure (MAP) from the control value.
After the target blood pressure and stable hemodynamic conditions were reached, the following parameters were measured: heart rate (HR), mean pulmonary artery pressure (PAM), pulmonary capillary wedge pressure (PCWP), and central venous pressure (CVP). Cardiac output (CO) was determined by the thermodilution method. Gas analyses of arterial and mixed venous bloods were performed using a blood gas analyzer.

[4] = enflurane, at -20% blood pressure

Q: For `O=[N+]([O-])OCC(CO[N+](=O)[O-])O[N+](=O)[O-]` [nitroglycerin, reference compound], which “Blood Pressure (Δ%)” value (rats [1]; infusion 0.03 μg/kg/min) is on record?
A: 0%

Q: What about the “Heart Rate (Δ%)” value (rats [1]; infusion 0.03 μg/kg/min) of the same compound?
A: 0%

Q: And the “Blood Pressure (Δ%)” value (rats [1]; infusion 0.1 μg/kg/min)?
A: 0%

Q: And the “Heart Rate (Δ%)” value (rats [1]; infusion 0.1 μg/kg/min)?
A: 0%

Q: What about the “Blood Pressure (Δ%)” value (rats [1]; infusion 0.3 μg/kg/min) of the same compound?
A: -1.0 ± 1.0%

Q: What about the “Heart Rate (Δ%)” value (rats [1]; infusion 0.3 μg/kg/min) of the same compound?
A: -0.3 ± 0.5%

Q: What about the “Blood Pressure (Δ%)” value (rats [1]; infusion 1 μg/kg/min) of the same compound?
A: -7.5 ± 3.2%

Q: What about the “Heart Rate (Δ%)” value (rats [1]; infusion 1 μg/kg/min) of the same compound?
A: -1.5 ± 1.1%

Q: What about the “Blood Pressure (Δ%)” value (rats [1]; infusion 3 μg/kg/min) of the same compound?
A: -16.4 ± 4.4%

Q: And the “Heart Rate (Δ%)” value (rats [1]; infusion 3 μg/kg/min)?
A: -6.5 ± 2.3%

Q: What about the “Blood Pressure (Δ%)” value (rats [1]; infusion 10 μg/kg/min) of the same compound?
A: -24.7 ± 4.4%

Q: What about the “Heart Rate (Δ%)” value (rats [1]; infusion 10 μg/kg/min) of the same compound?
A: -13.9 ± 4.0%

Q: What about the “Blood Pressure (Δ%)” value (rats [1]; infusion 30 μg/kg/min) of the same compound?
A: -27.6 ± 5.2%

Q: What about the “Heart Rate (Δ%)” value (rats [1]; infusion 30 μg/kg/min) of the same compound?
A: -13.8 ± 4.7%

Q: What about the “shortcomings / adverse effects” value [2] of the same compound?
A: congestion by the expansion of vanation, and tachycardia are caused; also recorded: sthenia of brain pressure is caused; also recorded: the arterial oxygen tension (PaO2) is decreased during hypotensive anesthesia

Q: What about the “recovered blood pressure (before administration = 100%), plateau” value (rats [3]; plateau) of the same compound?
A: about 85%

Q: What about the “fall in blood pressure attained before recovery” value (rats [3]; stepwise) of the same compound?
A: about 35%

Q: And the “rapidness of the recovery of blood pressure” value (rats [3]; order in words)?
A: Ap4A>PG E1 >nitroglycerin

Q: And the “fall in blood pressure attainable” value (dogs; enflurane)?
A: ~30%

Q: What about the “Arterial Carbonate Tension PaCO2” value (dogs; [4]) of the same compound?
A: 36.4 ± 1.6 mmHg

Q: What about the “Arterial Oxygen Tension PaO2” value (dogs; [4]) of the same compound?
A: 229.9 ± 2.7 mmHg

Q: And the “Arterial pH (pH-a)” value (dogs; [4])?
A: 7.315 ± 0.020

Q: And the “Body Temperature BT” value (dogs; [4])?
A: 38.6 ± 0.3 °C

Q: What about the “Cardiac Output C.O.” value (dogs; [4]) of the same compound?
A: 1.58 ± 0.21 L/min

Q: And the “Central Venous Pressure CVP” value (dogs; [4])?
A: 2.32 ± 0.75 mmHg

Q: And the Dose (dogs; [4])?
A: 42.2 ± 2.0 µg/kg/min

Q: And the “Heart Rate H.R.” value (dogs; [4])?
A: 191.7 ± 7.5 beats/min

Q: What about the “Hematocrit Value Hct” value (dogs; [4]) of the same compound?
A: 42.2 ± 2.0%

Q: What about the “Mean Blood Pressure B.P. (mean)” value (dogs; [4]) of the same compound?
A: 101.0 ± 1.5

Q: What about the “Mean Blood Pressure B.P. (Δ%)” value (dogs; [4]) of the same compound?
A: -18.7 ± 0.9%

Q: What about the “Mixed Venous Carbonate Tension PvCO2” value (dogs; [4]) of the same compound?
A: 39.6 ± 1.6 mmHg

Q: And the “Mixed Venous Oxygen Tension PvO2” value (dogs; [4])?
A: 46.5 ± 2.7 mmHg

Q: And the “Mixed Venous pH (pH-v)” value (dogs; [4])?
A: 7.300 ± 0.014

Q: What about the “Pulmonary Artery Pressure PAM” value (dogs; [4]) of the same compound?
A: 12.8 ± 1.0 mmHg

Q: And the “Pulmonary Capillary Wedge Pressure PCWP” value (dogs; [4])?
A: 8.0 ± 0.6 mmHg

Q: What about the “effect on arterial pH / venous pH” value (dogs; result in words) of the same compound?
A: significantly decrease arterial pH or have a tendency to decrease arterial pH

Q: And the “effect on heart rate” value (dogs; result in words)?
A: tendency to increase the heart rate when a 20% fall in blood pressure is attained

Q: And the “effect on oxygen tension” value (dogs; result in words)?
A: decreases PaO2
